Ends that are not written are not given here.
Biological target: T1, KITENIN homodimer (Homo sapiens, UniProt Q8TAA9)
T1 construct: Lysates of 293T cells expressing full‐length KITENIN‐myc; expressed in transfected cells; host or cells: Caco2
T1 sequence (Q8TAA9 1-524): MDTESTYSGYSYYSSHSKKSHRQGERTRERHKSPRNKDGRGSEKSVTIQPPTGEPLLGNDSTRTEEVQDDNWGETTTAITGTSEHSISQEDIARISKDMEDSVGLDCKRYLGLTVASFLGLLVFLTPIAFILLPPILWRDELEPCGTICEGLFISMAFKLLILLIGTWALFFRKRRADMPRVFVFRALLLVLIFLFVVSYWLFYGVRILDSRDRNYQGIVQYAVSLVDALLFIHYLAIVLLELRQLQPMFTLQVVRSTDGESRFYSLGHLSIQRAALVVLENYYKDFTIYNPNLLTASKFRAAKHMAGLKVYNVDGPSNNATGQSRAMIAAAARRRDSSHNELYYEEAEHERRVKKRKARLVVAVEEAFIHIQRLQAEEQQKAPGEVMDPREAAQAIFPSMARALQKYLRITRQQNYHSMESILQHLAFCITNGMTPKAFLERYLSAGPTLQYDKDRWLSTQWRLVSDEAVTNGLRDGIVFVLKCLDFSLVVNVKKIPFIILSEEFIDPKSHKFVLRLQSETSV
Experiment: In vitro pull-down of purified KITENIN-GST and KITENIN-His
Type: biochemical
Conditions: KDIP 5 μM, 4°C, 2 h, GST pull-down
Method: GST‐KITENIN or its derivatives were immobilized on glutathione‐sepharose beads. Myc‐tagged KITENIN was incubated with GST‐tagged KITENIN or its derivative proteins immobilized on glutathione‐sepharose as indicated. The bound protein complexes were eluted and analysed by SDS–PAGE followed by IB. To detect in vitro KITENIN homodimerization, […] GST‐KITENIN was incubated with Ni‐NTA‐purified KITENIN‐His and KDIP (5 μM) in the pull‐down buffer (50‐mM Tris.Cl [pH 7.5], 1‐mM dithiothreitol [DTT] 4% [v/v] glycerol, .1 mg/ml of BSA, 5‐mM MgCl2, 1‐mM ATP and 50‐mM NaCl) at 4°C for 2 h. […]
FIGURE 2 KAI1 C‐terminal interacting tetraspanin (KITENIN) dimerization‐interfering peptide (KDIP) suppresses KITENIN‐induced enhanced cell invasion through the inhibition of the homodimerization of KITENIN. […] After 48 h of treatment, KITENIN transcripts in cells were analysed by the 2^−ΔΔ ^CT method using Q‐PCR. […] Caco2 cells were co‐transfected with KITENIN‐V5/Myc and treated with or without KDIP or scrambled peptide (scr) and were immunoprecipitated with anti‐V5 antibody and detected by indicated antibodies. Numerals indicated a quantification of the MYC bands normalized to the corresponding V5 bands (left panel). […] The histogram represents invading cells, which were counted at four chosen areas and shown by bar graphs (mean ± SEM, n = 4, ^** p < .01). […]

YARVRRRGPRRWRLVSDEAV [KDIP]
dimerization of purified KITENIN proteins in vitro (in words): directly reduced
